The target in the assay is T1, human AR (Homo sapiens, UniProt P10275).
T1 construct: expressed in transfected cells; host or cells: COS-1
T1 sequence (P10275 1-920): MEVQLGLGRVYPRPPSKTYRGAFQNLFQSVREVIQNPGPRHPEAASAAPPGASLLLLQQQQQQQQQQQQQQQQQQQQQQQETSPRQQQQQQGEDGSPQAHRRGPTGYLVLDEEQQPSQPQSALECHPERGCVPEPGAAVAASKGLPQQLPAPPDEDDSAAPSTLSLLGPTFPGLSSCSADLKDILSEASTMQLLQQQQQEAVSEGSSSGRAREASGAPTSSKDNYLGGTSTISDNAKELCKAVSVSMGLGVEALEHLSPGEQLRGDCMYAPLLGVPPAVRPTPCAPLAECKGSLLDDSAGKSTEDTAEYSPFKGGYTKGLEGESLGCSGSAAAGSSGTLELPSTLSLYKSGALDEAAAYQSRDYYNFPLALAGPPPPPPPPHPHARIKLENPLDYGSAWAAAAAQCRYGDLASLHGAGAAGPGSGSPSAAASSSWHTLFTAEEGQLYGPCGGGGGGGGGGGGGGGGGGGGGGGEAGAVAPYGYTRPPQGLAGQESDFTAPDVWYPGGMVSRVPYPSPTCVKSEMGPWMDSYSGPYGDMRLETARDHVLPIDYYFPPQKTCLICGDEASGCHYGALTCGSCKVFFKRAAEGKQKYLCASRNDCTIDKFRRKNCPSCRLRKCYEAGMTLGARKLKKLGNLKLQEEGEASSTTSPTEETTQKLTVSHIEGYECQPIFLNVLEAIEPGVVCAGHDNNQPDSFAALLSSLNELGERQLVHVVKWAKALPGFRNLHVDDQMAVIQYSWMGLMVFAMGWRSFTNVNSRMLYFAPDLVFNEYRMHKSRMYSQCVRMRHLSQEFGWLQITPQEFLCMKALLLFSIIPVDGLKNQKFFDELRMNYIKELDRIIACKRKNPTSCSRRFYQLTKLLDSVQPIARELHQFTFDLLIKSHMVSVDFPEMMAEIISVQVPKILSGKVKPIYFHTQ
Put plainly: Competitive AR binding assay against [3H]-R1881 in transiently transfected COS-1 cells. To be noted: compound 13.4 μM, [3H]-R1881 1.34 nM, complete inhibition equals 100%, read-out: Inhibition of [3H]-R1881 binding at 1.34 nM ± S.D. An outline of the steps:
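COS-1 cells transfected 24 h with human AR vector, then after 36 h exposed 2 h at 37° C to compound at 10000-fold molar excess over 1.34 nM [3H]-R1881. Cell-bound radioactivity counted in triplicate; result given as % inhibition of labelled R1881 binding.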

Where two headings read alike, the source gives them in different places.

As to `CC(C)(O)C(=O)Nc1ccc([N+](=O)[O-])c(C(F)(F)F)c1` [Hydroxyflutamide, reference compound], the inhibition (commonly the relative decrease from the control value, in per cent) at 13.4 µM by setting is: (Table 1) 91.1 ± 2.2%; (Table 2) 94.8 ± 0.8%; (Table 3) 95.2 ± 2.9%.

The values above are taken from patent publication US9278942B2, “Non-steroidal compounds as androgen receptor modulators” (FLX Discoveries Oy, priority 2011, dated 2016).
